Our source for the IC50 values is US10017506B2, “ATX modulating agents” (BIOGEN MA INC., priority 2012, dated 2018).

As a reminder, the IC50 is the concentration at which inhibition is half-maximal.

The first assay has as its target T1, Human ATX protein (Homo sapiens, UniProt Q13822).
T1 construct: made in house
Put plainly: ATX biochemical FRET assay with FS-3 substrate. As to conditions: FRET substrate FS-3 2 μM, ATX 1.0 μg/mL, 30 minutes pre-incubation, 2 hours at room temperature; read-out: IC50. The text has this: ATX (Autotaxin) is a 125 KDa glycoprotein with lysophospholipase D (LPLD) activity that generates the bioactive lipid lysophosphatidic acid (LPA) from lysophosphatidylcholine (LPC). The ATX biochemical assay utilizes a FRET (fluorescence resonance energy transfer) technology platform. The fluorescence signal of FRET substrate FS-3 is quenched due to intra-molecular FRET of a fluorophore to a non-fluorescing quencher (Ferguson, C. G., et al., Org Lett. 2006 May 11; 8(10): 2023-2026, which is incorporated by reference in its entirety). ATX catalyzes the hydrolysis of the substrate which separates the dabsyl quencher from the fluorescein reporter, which becomes fluorescent. The reaction is monitored by a SpectraMax M5 (Molecular Devices, Sunnyvale, Calif.) with at excitation wavelength 485 nm and emission wavelength […].
Fatty acid free-BSA (Sigma A8806): 10 mg/mL in H2O, stored at 4° C.
2×ATX assay buffer: 100 mM Tris, 280 mM NaCl, 10 mM KCl, 2 mM CaCl2, 2 mM MgCl2, pH 7.4.
Human ATX protein: expressed and purified in house. Stored at −80° C.
Substrate FS-3 (Echelon, L-2000): 100 μg in 77.74 μL H2O (1 mM stock), stored at −20° C.
384-well flat bottom plates—Corning #3575.
Compound dilution—All compounds were provided at 10 mM in 100% DMSO. In the first well, 2 μL of 10 mM compound was added to 78 μL of DMSO (1:40 dilution). In subsequent wells 3-fold dilution (total 10 dilutions) were performed.
1×ATX assay buffer was made up with a final concentration of 1 mg/mL fatty acid free-BSA using 2×ATX assay buffer, 10 mg/ml fatty acid free-BSA and ddH2O.
ATX protein was diluted with 1×ATX assay buffer to a concentration of 1.32 μg/mL (1.32×). 38 μL was added per well to the assay plate. The final concentration of ATX in the reaction as 1.0 μg/mL.
2 μL per well of compounds was transferred to provide the desired concentration. The plate was centrifuged, then incubated at room temperature for 30 minutes on the shaker.
Then, 10 μL was added per well to the assay plate. […] The plate was centrifuged. The plate was kept shaking at room temperature for 2 hours. Because FS-3 substrate is light sensitive, plates were kept covered and protected from light.
Fluorescence was measured using SpectraMax M5 (excitation at 485 nm/emission at 538 nm, top read).
For the compound `CC(N[C@H]1C[C@@H](C(=O)O)C1(C)C)c1ccc2ccc(O[C@H]3CC[C@@H](C)CC3)c(Cl)c2c1` (relative stereo) [Example 93, Cis-3-((1-(8-chloro-7-((cis-4-methylcyclohexyl)oxy)naphthalen-2-yl)ethyl)amino)-2,2-dimethylcyclobutanecarboxylic acid], the IC50 is not above 250 nM. On the same count and under the same terms, for `C[C@H](N[C@H]1C[C@@H](C(=O)O)C1(C)C)c1ccc2ccc(O[C@H]3CC[C@@H](C)CC3)c(C(F)(F)F)c2c1` [Example 114b, (1R,3S)-2,2-dimethyl-3-(((S)-1-(7-((cis-4-methylcyclohexyl)oxy)-8-(trifluoromethyl)naphthalen-2-yl)ethyl)amino)cyclobutanecarboxylic acid] the value was not above 100 nM; for `CCC(NC1CC(C(=O)O)C1(C)C)c1ccc2ccc(O[C@H]3CC[C@@H](C)CC3)c(C(F)(F)F)c2c1` (stereo partly drawn) [Example 105, 2,2-dimethyl-3-((1-(7-((cis-4-methylcyclohexyl)oxy)-8-(trifluoromethyl)naphthalen-2-yl)propyl)amino)cyclobutanecarboxylic acid], not above 100 nM.

Turning to `CC[C@H]1CC[C@@H](Oc2ccc3ccc(CNC4CC(C(=O)O)C4(C)C)cc3c2C(F)(F)F)CC1` (stereo partly drawn) [Example 54, 3-(((7-((cis-4-ethylcyclohexyl)oxy)-8-(trifluoromethyl)naphthalen-2-yl)methyl)amino)-2,2-dimethylcyclobutanecarboxylic acid], the IC50 was not above 500 nM. As to `CC[C@H]1CC[C@@H](Oc2ccc3ccc(C(C)NC4CC(C(=O)O)C4(C)C)cc3c2C(F)(F)F)CC1` (stereo partly drawn) [Example 59, 3-((1-(7-((cis-4-ethylcyclohexyl)oxy)-8-(trifluoromethyl)naphthalen-2-yl)ethyl)amino)-2,2-dimethylcyclobutanecarboxylic acid], the IC50 is not above 100 nM.

As for `CC[C@H]1CC[C@@H](Oc2ccc3ccc([C@@H](C)N[C@H]4CC[C@@H](C(=O)O)CC4)cc3c2C(F)(F)F)CC1` [Example 135b, cis-4-(((R)-1-(7-((cis-4-ethylcyclohexyl)oxy)-8-(trifluoromethyl)naphthalen-2-yl)ethyl)amino)cyclohexanecarboxylic acid], the IC50 was not above 250 nM. Still for that read-out and setting: under `CC(N[C@@H]1C[C@H](C(=O)O)C1(C)C)c1ccc2ccc(O[C@H]3CC[C@@H](C)CC3)c(C(F)(F)F)c2c1` (stereo partly drawn) [Example 112, (1S,3R)-2,2-dimethyl-3-((1-(7-((cis-4-methylcyclohexyl)oxy)-8-(trifluoromethyl)naphthalen-2-yl)ethyl)amino)cyclobutanecarboxylic acid] stands not above 100 nM; under `CC(c1ccc2ccc(O[C@H]3CC[C@@H](C(F)(F)F)CC3)c(C(F)(F)F)c2c1)N1CCC[C@H](CC(=O)O)C1` (stereo partly drawn) [Example 21, ((R)-1-{1-[8-trifluoromethyl-7-(4-trifluoromethyl-cyclohexyloxy)-naphthalen-2-yl]-ethyl}-piperidin-3-yl)-acetic acid], not above 250 nM.

In the case of `CC(c1ccc2ccc(O[C@H]3CC[C@@H](C(F)(F)F)CC3)c(C(F)(F)F)c2c1)N1CCC(C(=O)O)CC1` (stereo partly drawn) [Example 44, 1-(1-(8-(trifluoromethyl)-7-((cis-4-(trifluoromethyl)cyclohexyl)oxy)naphthalen-2-yl)ethyl)piperidine-4-carboxylic acid], the IC50 is not above 100 nM.

For `CC1(C)C(NCc2ccc3ccc(O[C@H]4CC[C@@H](C)CC4)c(C(F)(F)F)c3c2)CC1C(=O)O` (stereo partly drawn) [Example 78, 2,2-dimethyl-3-(((7-((cis-4-methylcyclohexyl)oxy)-8-(trifluoromethyl)naphthalen-2-yl)methyl)amino)cyclobutanecarboxylic acid], the IC50 is not above 250 nM.

For `CC(C)(C)[C@H]1CC[C@H](Nc2cc3cc(C(=O)NC45CCC(C(=O)O)(CC4)CC5)ccc3cn2)CC1` [Example 152, 4-(3-((trans-4-(tert-butyl)cyclohexyl)amino)isoquinoline-6-carboxamido)bicyclo[2.2.2]octane-1-carboxylic acid], the IC50 was not above 100 nM.

Consider `C[C@@H](N[C@H]1CC[C@@H](C(=O)O)CC1)c1ccc2ccc(O[C@H]3CC[C@@H](C(F)(F)F)CC3)c(C(F)(F)F)c2c1` [Example 136b, cis-4-(((R)-1-(8-(trifluoromethyl)-7-((cis-4-(trifluoromethyl)cyclohexyl)oxy)naphthalen-2-yl)ethyl)amino)cyclohexanecarboxylic acid], for which the IC50 was not above 250 nM.

As to `CCC(c1ccc2ccc(O[C@H]3CC[C@@H](CC)CC3)c(C(F)(F)F)c2c1)N1CCC[C@H](CC(=O)O)C1` (stereo partly drawn) [Example 61, 2-((3R)-1-(1-(7-((cis-4-ethylcyclohexyl)oxy)-8-(trifluoromethyl)naphthalen-2-yl)propyl)piperidin-3-yl)acetic acid], the IC50 was not above 250 nM.

Still in this assay, the particulars now being: IC50, FRET substrate FS-3 2 μM, ATX 1.0 μg/mL, 30 minutes pre-incubation, 2 hours at room temperature.
As to `C[C@H]1CC[C@@H](Oc2ccc3ccc(CN4C5CCCC4CC(C(=O)O)C5)cc3c2Cl)CC1` (some centres unmarked) [Example 15, 9-[8-Chloro-7-(4-methyl-cyclohexyloxy)-naphthalen-2-ylmethyl]-9-aza-bicyclo[3.3.1]nonane-3-carboxylic acid], the IC50 is not above 100 nM. Same read-out and setting: under `CCC(c1ccc2ccc(O[C@H]3CC[C@@H](C(F)(F)F)CC3)c(C#N)c2c1)N1C2CCC1CC(C(=O)O)C2` (stereo partly drawn) [Example 40, 8-(1-(8-cyano-7-((cis-4-(trifluoromethyl)cyclohexyl)oxy)naphthalen-2-yl)propyl)-8-azabicyclo[3.2.1]octane-3-carboxylic acid] stands not above 500 nM.

For `CCC(c1ccc2ccc(O[C@H]3CC[C@@H](C)CC3)c(Cl)c2c1)N1C2CCC1CC(C(=O)O)C2` (stereo partly drawn) [Example 95, 8-(1-(8-chloro-7-((cis-4-methylcyclohexyl)oxy)naphthalen-2-yl)propyl)-8-azabicyclo[3.2.1]octane-3-carboxylic acid], the half-maximal inhibitory concentration (IC50) was not above 500 nM. Compound `CC[C@H]1CC[C@@H](Oc2ccc3ccc(C(C)N4C5CCC4CC(C(=O)O)C5)cc3c2C(F)(F)F)CC1` (stereo partly drawn) [Example 55, 8-(1-(7-((cis-4-ethylcyclohexyl)oxy)-8-(trifluoromethyl)naphthalen-2-yl)ethyl)-8-azabicyclo[3.2.1]octane-3-carboxylic acid] displayed an IC50 not above 100 nM. The same measure, in the same setting: under `CC[C@H]1CC[C@@H](Oc2ccc3ccc([C@@H](C)N4C5CCCC4CC(C(=O)O)C5)cc3c2C(F)(F)F)CC1` (stereo partly drawn) [Example 133b, 9-((R)-1-(7-((cis-4-ethylcyclohexyl)oxy)-8-(trifluoromethyl)naphthalen-2-yl)ethyl)-9-azabicyclo[3.3.1]nonane-3-carboxylic acid] stands not above 250 nM; under `CC(c1ccc2ccc(O[C@H]3CC[C@@H](C)CC3)c(C(F)F)c2c1)N1C2CCC1CC(C(=O)O)C2` (stereo partly drawn) [Example 87, 8-(1-(8-(difluoromethyl)-7-((cis-4-methylcyclohexyl)oxy)naphthalen-2-yl)ethyl)-8-azabicyclo[3.2.1]octane-3-carboxylic acid], not above 100 nM. The same measure, in the same setting: for `C[C@H]1CC[C@@H](Oc2ccc3ccc(CN4C5CCC4CC(C(=O)O)C5)cc3c2Cl)CC1` (stereo partly drawn) [Example 83, 8-((8-chloro-7-((cis-4-methylcyclohexyl)oxy)naphthalen-2-yl)methyl)-8-azabicyclo[3.2.1]octane-3-carboxylic acid] the value was not above 250 nM; for `C[C@H](c1ccc2ccc(O[C@H]3CC[C@@H](C(F)(F)F)CC3)c(C(F)(F)F)c2c1)N1C2CCC1CC(C(=O)O)C2` (stereo partly drawn) [Example 12b, 8-{(R)-1-[7-(cis-4-trifluoromethyl-cyclohexyloxy)-8-trifluoromethyl-naphthalen-2-yl]-ethyl}-8-aza-bicyclo[3.2.1]octane-3-carboxylic acid], not above 100 nM; for `C[C@@H](c1ccc2ccc(O[C@H]3CC[C@@H](C(F)(F)F)CC3)c(C(F)(F)F)c2c1)N1C2CCCC1CC(C(=O)O)C2` (stereo partly drawn) [Example 137a, 9-((S)-1-(8-(trifluoromethyl)-7-((cis-4-(trifluoromethyl)cyclohexyl)oxy)naphthalen-2-yl)ethyl)-9-azabicyclo[3.3.1]nonane-3-carboxylic acid], not above 100 nM. On the same count and under the same terms, for `CC[C@H]1CC[C@@H](Oc2ccc3ccc(C(C)N4C5CCCC4CC(C(=O)O)C5)cc3c2C(F)(F)F)CC1` (stereo partly drawn) [Example 56, 9-(1-(7-((cis-4-ethylcyclohexyl)oxy)-8-(trifluoromethyl)naphthalen-2-yl)ethyl)-9-azabicyclo[3.3.1]nonane-3-carboxylic acid] the value was not above 100 nM.
